Measured values taken from patent publication US12209087B2, “AKT1 modulators” (Alterome Therapeutics, Inc., priority 2022, dated 2025).

Biological target: T1, full length AKT E17K (Homo sapiens, UniProt P31749, E17K)
T1 construct: host or cells: HEK-293 (ATCC CRL-1573)
Assay: NanoBRET Target Engagement (TE) Assay
Type: cell-based
Conditions: competitive displacement of tracer in cells, read-out: AKT1 E17K IC50
In short: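 Compound and tracer incubated 2 h before luminescence at donor 450 nm and acceptor 600 nm, with extracellular signal inhibited. EC50 by sigmoidal variable-slope regression.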

T1 sequence (P31749 whole entry E17K): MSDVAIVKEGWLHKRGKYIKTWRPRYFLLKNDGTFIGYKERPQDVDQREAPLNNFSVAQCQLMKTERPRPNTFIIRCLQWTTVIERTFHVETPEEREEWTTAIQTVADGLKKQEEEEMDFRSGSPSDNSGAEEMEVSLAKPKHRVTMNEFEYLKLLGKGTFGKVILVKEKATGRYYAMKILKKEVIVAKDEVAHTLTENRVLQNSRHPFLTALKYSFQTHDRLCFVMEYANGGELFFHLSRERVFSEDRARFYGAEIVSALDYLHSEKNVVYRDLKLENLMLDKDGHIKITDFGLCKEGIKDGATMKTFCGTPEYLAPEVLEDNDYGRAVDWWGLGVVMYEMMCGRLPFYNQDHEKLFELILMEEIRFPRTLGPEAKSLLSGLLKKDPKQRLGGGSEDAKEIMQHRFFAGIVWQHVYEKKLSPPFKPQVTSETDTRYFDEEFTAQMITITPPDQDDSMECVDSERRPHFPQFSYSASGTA

Row | IC50 [nM] | SMILES
1 | < 15 | N#Cc1nccc(NC2CCN(Cc3ccc(-n4c(-c5cccnc5N)nc5ccc(-c6cccc(N7CCCC7=O)c6)nc54)cc3)CC2)n1 [Example 468, 4-((1-(4-(2-(2-Aminopyridin-3-yl)-5-(3-(2-oxopyrrolidin-1-yl)phenyl)-3H-imidazo[4,5-b]pyridin-3-yl)benzyl)piperidin-4-yl)amino)pyrimidine-2-carbonitrile]
2 | < 15 | COc1cc(F)ccc1-c1ccc2nc(-c3cccnc3N)n(-c3ccc(CN4CCC(Nc5ccnc(C#N)n5)CC4)cc3)c2n1 [Example 469, 4-((1-(4-(2-(2-Aminopyridin-3-yl)-5-(4-fluoro-2-methoxyphenyl)-3H-imidazo[4,5-b]pyridin-3-yl)benzyl)piperidin-4-yl)amino)pyrimidine-2-carbonitrile]
3 | 60 to 600 | N#Cc1nccc(NC2CCN(Cc3ccc(-n4c(-c5cccnc5N)nc5ccc(-c6ccccc6C(F)(F)F)nc54)cc3)CC2)n1 [Example 470, 4-((1-(4-(2-(2-Aminopyridin-3-yl)-5-(2-(trifluoromethyl)phenyl)-3H-imidazo[4,5-b]pyridin-3-yl)benzyl)piperidin-4-yl)amino)pyrimidine-2-carbonitrile]
4 | 15 to 60 | N#Cc1nccc(NC2CCN(Cc3ccc(-n4c(-c5cccnc5N)nc5ccc(-c6ccc(C(F)(F)F)cc6)nc54)cc3)CC2)n1 [Example 471, 4-((1-(4-(2-(2-Aminopyridin-3-yl)-5-(4-(trifluoromethyl)phenyl)-3H-imidazo[4,5-b]pyridin-3-yl)benzyl)piperidin-4-yl)amino)pyrimidine-2-carbonitrile]
5 | < 15 | Cn1ncc(-c2ccc3nc(-c4cccnc4N)n(-c4ccc(CN5CCC(Nc6ccnc(C#N)n6)CC5)cc4)c3n2)n1 [Example 472, 4-((1-(4-(2-(2-Aminopyridin-3-yl)-5-(2-methyl-2H-1,2,3-triazol-4-yl)-3H-imidazo[4,5-b]pyridin-3-yl)benzyl)piperidin-4-yl)amino)pyrimidine-2-carbonitrile]
6 | < 15 | Cc1noc(C)c1-c1ccc2nc(-c3cccnc3N)n(-c3ccc(CN4CCC(Nc5ccnc(C#N)n5)CC4)cc3)c2n1 [Example 473, 4-((1-(4-(2-(2-Aminopyridin-3-yl)-5-(3,5-dimethylisoxazol-4-yl)-3H-imidazo[4,5-b]pyridin-3-yl)benzyl)piperidin-4-yl)amino)pyrimidine-2-carbonitrile]
7 | < 15 | N#Cc1nccc(NC2CCN(Cc3ccc(-n4c(-c5cccnc5N)nc5ccc(-c6cnn(C(F)F)c6)nc54)cc3)CC2)n1 [Example 474, 4-((1-(4-(2-(2-Aminopyridin-3-yl)-5-(1-(difluoromethyl)-1H-pyrazol-4-yl)-3H-imidazo[4,5-b]pyridin-3-yl)benzyl)piperidin-4-yl)amino)pyrimidine-2-carbonitrile]
8 | < 15 | N#Cc1nccc(NC2CCN(Cc3ccc(-n4c(-c5cccnc5N)nc5ccc(-c6ccc(F)cc6F)nc54)cc3)CC2)n1 [Example 475, 4-((1-(4-(2-(2-Aminopyridin-3-yl)-5-(2,4-difluorophenyl)-3H-imidazo[4,5-b]pyridin-3-yl)benzyl)piperidin-4-yl)amino)pyrimidine-2-carbonitrile]
9 | < 15 | COc1cccc(-c2ccc3nc(-c4cccnc4N)n(-c4ccc(CN5CCC(Nc6ccnc(C#N)n6)CC5)cc4)c3n2)n1 [Example 476, 4-((1-(4-(2-(2-Aminopyridin-3-yl)-5-(6-methoxypyridin-2-yl)-3H-imidazo[4,5-b]pyridin-3-yl)benzyl)piperidin-4-yl)amino)pyrimidine-2-carbonitrile]
10 | < 15 | Cc1cc(-c2ccc3nc(-c4cccnc4N)n(-c4ccc(CN5CCC(Nc6ccnc(C#N)n6)CC5)cc4)c3n2)ccn1 [Example 477, 4-((1-(4-(2-(2-Aminopyridin-3-yl)-5-(2-methylpyridin-4-yl)-3H-imidazo[4,5-b]pyridin-3-yl)benzyl)piperidin-4-yl)amino)pyrimidine-2-carbonitrile]
11 | < 15 | Cc1cncc(-c2ccc3nc(-c4cccnc4N)n(-c4ccc(CN5CCC(Nc6ccnc(C#N)n6)CC5)cc4)c3n2)c1 [Example 478, 4-((1-(4-(2-(2-Aminopyridin-3-yl)-5-(5-methylpyridin-3-yl)-3H-imidazo[4,5-b]pyridin-3-yl)benzyl)piperidin-4-yl)amino)pyrimidine-2-carbonitrile]
12 | < 15 | CC(C)n1cc(-c2ccc3nc(-c4cccnc4N)n(-c4ccc(CN5CCC(Nc6ccnc(C#N)n6)CC5)cc4)c3n2)cn1 [Example 479, 4-((1-(4-(2-(2-Aminopyridin-3-yl)-5-(1-isopropyl-1H-pyrazol-4-yl)-3H-imidazo[4,5-b]pyridin-3-yl)benzyl)piperidin-4-yl)amino)pyrimidine-2-carbonitrile]
13 | < 15 | N#Cc1nccc(NC2CCN(Cc3ccc(-n4c(-c5cccnc5N)nc5ccc(-c6cnsc6)nc54)cc3)CC2)n1 [Example 480, 4-((1-(4-(2-(2-Aminopyridin-3-yl)-5-(isothiazol-4-yl)-3H-imidazo[4,5-b]pyridin-3-yl)benzyl)piperidin-4-yl)amino)pyrimidine-2-carbonitrile]
14 | < 15 | Cn1cc(-c2ccc3nc(-c4cccnc4N)n(-c4ccc(CN5CCC(Nc6ccnc(C#N)n6)CC5)cc4)c3n2)cc1C#N [Example 481, 4-((1-(4-(2-(2-Aminopyridin-3-yl)-5-(5-cyano-1-methyl-1H-pyrrol-3-yl)-3H-imidazo[4,5-b]pyridin-3-yl)benzyl)piperidin-4-yl)amino)pyrimidine-2-carbonitrile]
15 | < 15 | N#Cc1nccc(NC2CCN(Cc3ccc(-n4c(-c5cccnc5N)nc5ccc(-c6cscn6)nc54)cc3)CC2)n1 [Example 482, 4-((1-(4-(2-(2-Aminopyridin-3-yl)-5-(thiazol-4-yl)-3H-imidazo[4,5-b]pyridin-3-yl)benzyl)piperidin-4-yl)amino)pyrimidine-2-carbonitrile]
16 | < 15 | N#Cc1nccc(NC2CCN(Cc3ccc(-n4c(-c5cccnc5N)nc5ccc(-c6ccns6)nc54)cc3)CC2)n1 [Example 483, 4-((1-(4-(2-(2-Aminopyridin-3-yl)-5-(isothiazol-5-yl)-3H-imidazo[4,5-b]pyridin-3-yl)benzyl)piperidin-4-yl)amino)pyrimidine-2-carbonitrile]
17 | < 15 | Cc1c(-c2ccc3nc(-c4cccnc4N)n(-c4ccc(CN5CCC(Nc6ccnc(C#N)n6)CC5)cc4)c3n2)cnn1C [Example 484, 4-((1-(4-(2-(2-Aminopyridin-3-yl)-5-(1,5-dimethyl-1H-pyrazol-4-yl)-3H-imidazo[4,5-b]pyridin-3-yl)benzyl)piperidin-4-yl)amino)pyrimidine-2-carbonitrile]
18 | < 15 | N#Cc1nccc(NC2CCN(Cc3ccc(-n4c(-c5cccnc5N)nc5ccc(Br)nc54)cc3)CC2)n1 [Example 485, 4-((1-(4-(2-(2-Aminopyridin-3-yl)-5-bromo-3H-imidazo[4,5-b]pyridin-3-yl)benzyl)piperidin-4-yl)amino)pyrimidine-2-carbonitrile]
19 | < 15 | [2H]C([2H])(c1ccc(-n2c(-c3cccnc3N)nc3ccc(Br)nc32)cc1)N1CCC(Nc2ccnc(C#N)n2)CC1 [Example 486, 4-((1-((4-(2-(2-Aminopyridin-3-yl)-5-bromo-3H-imidazo[4,5-b]pyridin-3-yl)phenyl)methyl-d2)piperidin-4-yl)amino)pyrimidine-2-carbonitrile]
20 | < 15 | N#Cc1ncnc(NC2CCN(Cc3ccc(-n4c(-c5cccnc5N)nc5ccc(-c6ccc(F)cc6)nc54)cc3)CC2)n1 [Example 487, 4-((1-(4-(2-(2-Aminopyridin-3-yl)-5-(4-fluorophenyl)-3H-imidazo[4,5-b]pyridin-3-yl)benzyl)piperidin-4-yl)amino)-1,3,5-triazine-2-carbonitrile]
21 | < 15 | [2H]C([2H])(c1ccc(-n2c(-c3cccnc3N)nc3ccc(-c4ccc(F)cc4)nc32)cc1)N1CCC(N(C)c2ccnc(C#N)n2)CC1 [Example 488, 4-((1-((4-(2-(2-Aminopyridin-3-yl)-5-(4-fluorophenyl)-3H-imidazo[4,5-b]pyridin-3-yl)phenyl)methyl-d2)piperidin-4-yl)(methyl)amino)pyrimidine-2-carbonitrile]
22 | < 15 | [2H]C([2H])(c1ccc(-n2c(-c3cccnc3N)nc3ccc(-c4ccc(F)cc4)nc32)cc1)N1CCC(Nc2ccnc(C#N)n2)CC1 [Example 489, 4-((1-((4-(2-(2-Aminopyridin-3-yl)-5-(4-fluorophenyl)-3H-imidazo[4,5-b]pyridin-3-yl)phenyl)methyl-d2)piperidin-4-yl)amino)pyrimidine-2-carbonitrile]
23 | < 15 | N#Cc1nccc(N2CC3(CCN(Cc4ccc(-n5c(-c6cccnc6N)nc6ccc(-c7ccc(F)cc7)nc65)cc4)CC3)C2)n1 [Example 490, 4-(7-(4-(2-(2-Aminopyridin-3-yl)-5-(4-fluorophenyl)-3H-imidazo[4,5-b]pyridin-3-yl)benzyl)-2,7-diazaspiro[3.5]nonan-2-yl)pyrimidine-2-carbonitrile]
24 | < 15 | N#Cc1nccc(N2CCC3(CC2)CN(Cc2ccc(-n4c(-c5cccnc5N)nc5ccc(-c6ccc(F)cc6)nc54)cc2)C3)n1 [Example 491, 4-(2-(4-(2-(2-Aminopyridin-3-yl)-5-(4-fluorophenyl)-3H-imidazo[4,5-b]pyridin-3-yl)benzyl)-2,7-diazaspiro[3.5]nonan-7-yl)pyrimidine-2-carbonitrile]
25 | 60 to 600 | C[S+]([O-])c1ccc2nc(-c3cccnc3N)n(-c3ccc(CN4CCC(Nc5ccnc(C#N)n5)CC4)cc3)c2n1 (centres unmarked) [Example 492, 4-((1-(4-(2-(2-Aminopyridin-3-yl)-5-(methylsulfinyl)-3H-imidazo[4,5-b]pyridin-3-yl)benzyl)piperidin-4-yl)amino)pyrimidine-2-carbonitrile]
26 | < 15 | Cc1cc(C)c2nc(-c3cccnc3N)n(-c3ccc(CN4CCC(Nc5ccnc(C#N)n5)CC4)cc3)c2n1 [Example 493, 4-((1-(4-(2-(2-Aminopyridin-3-yl)-5,7-dimethyl-3H-imidazo[4,5-b]pyridin-3-yl)benzyl)piperidin-4-yl)amino)pyrimidine-2-carbonitrile]
